For series [1] the following is noted: solvents named in the value; cited from earlier work.
Another series relates to cancer cell models. The note with it: literature reports; cited from earlier work.
A further series deals with CT-26 murine colon tumor. As to the kind of experiment: CT-26 tumor volume growth, ID #24 and anti-4-1BB. It is filed as in vivo. The following applies: Anti-m4-1BB 0.05 mg/kg IP QDx1, in mm³.
For series [2], the system named is intratumoral CD8 T-cells and natural killer cells. As to the kind of experiment: Intratumoral immune cells in tumor bearing mice. The class given is in vivo.
For series [3], the system named is human acute leukemia cell line (HL-60). The series is described as follows: CellTiter-Glo cell viability assay, single agent growth inhibition. The class given is cell-based. The note with it: HL-60, 72 hours treatment. The method, then:
Cell viability in the presence of varying concentrations of the benzamide compounds at different time points was used to assess cytotoxicity and the effect of the compounds on cell proliferation.
Cell Viability Assay-Cell viability was measured by the CellTiter-Glo® cell viability assay Promega (Madison, Wis.). The CellTiter-Glo® Luminescent Cell Viability Assay is a homogeneous method to determine the number of viable cells in culture based on quantitation of the ATP present, which signals the presence of metabolically active cells. Following treatment, CellTiter-Glo® is added to treatment wells and incubated at 37° C. luminescence values were measured at using a Molecular Devices Spectramax microplate reader.
Single Agent Studies—Cells were grown to 70% confluency, trypsinized, counted, and seeded in 96 well flat-bottom plates at a final concentration of 2.5×10^3-5×10^3 cells/well (Day 0). Cells were allowed to incubate in growth media for 24 hours to allow for maximum adhesion. Treatment with the test agents or standard agents began on Day 1 and continued for 72 hours. At the 72-hour time point, treatment containing media was removed. Viable cell numbers are quantified by the CellTiter-Glo® cell viability assay as described above. Experiments were run with triplicate concentrations to determine growth inhibitory activity. Results from these studies were used to calculate an IC50 value (concentration of drug that inhibits cell growth by 50 percent of control) for each compound.
Data Collection—For single agent and combination studies, data from each experiment was collected and expressed as % Cell Growth using the following calculation: % Cell Growth=(ftest/fvehicle)×100
Where ftest is the luminescence of the tested sample, and fvehicle is the luminescence of the vehicle in which the drug is dissolved. Dose response graphs and IC50 values were generated using Prism 6 software (GraphPad).
(In general: ATP-based viability assays read luminescence as a measure of living cells.)

“And” between values parts separate entries of the source, which are not always exact repeats. Identical values can stand only once. “Also recorded” adds a separate entry of the source.

Regarding `Nc1ncn([C@@H]2O[C@H](CO)[C@@H](O)[C@H]2O)c(=O)n1` [Azacitidine, 4-amino-1-β-D-ribofuranozyl-s-triazin-2(1H)-one], the solubility result in series [1] was “insoluble in acetone, ethanol and methyl ketone; also recorded: slightly soluble in ethanol/water (50/50), propylene glycol and polyethylene glycol; also recorded: sparingly soluble in water, water-saturated octanol, 5% dextrose in water, N-methyl-2-pyrrolidone, normal saline and 5% Tween 80 in water; also recorded: soluble in dimethylsulfoxide (DMSO)”.

For `Nc1ncn([C@H]2C[C@H](O)[C@@H](CO)O2)c(=O)n1` [Decitabine, 4-amino-1-(2-deoxy-β-D-erythro-pentofuranosyl)-1,3,5-triazin-2(1H)one], in the series with cancer cell models, the “effects on cancer cells” value was “suppression of growth and apoptosis; also recorded: causes G2 arrest, reduces clonogenic survival, and inhibits growth in cells”. In addition, in series [1], the solubility entry was “slightly soluble in ethanol/water (50/50), methanol/water (50/50) and methanol; also recorded: sparingly soluble in water; also recorded: soluble in dimethylsulfoxide (DMSO)”.

What is called IC50 is the point on the concentration scale where inhibition reaches its midpoint. Take `O=C(NO)c1ccc(Nc2nc3ccccc3n2CC2CCCCC2)cc1` [ID #24, 4-(1-(cyclohexylmethyl)-1H-benzo[d]imidazol-2-ylamino)-N-hydroxybenzamide]: the “tumor volume, individual animal (ID 001-005)” value is 85 in the series on CT-26 murine colon tumor (Day 1, Example #24 150.00 mg/kg PO QD to end); 73 with CT-26 murine colon tumor (Day 5, Example #24 150.00 mg/kg PO QD to end); 65 with CT-26 murine colon tumor (Day 8, Example #24 150.00 mg/kg PO QD to end); 65 in the series on CT-26 murine colon tumor (Day 9, Example #24 150.00 mg/kg PO QD to end); 68 and 590 with CT-26 murine colon tumor (Day 12, Example #24 150.00 mg/kg PO QD to end); 67 in the series with CT-26 murine colon tumor (Day 14, Example #24 150.00 mg/kg PO QD to end). Moreover, in series [2], the “numbers of intratumoral CD8 T-cells and natural killer cells” value is “increased numbers of intratumoral CD8 T-cells and natural killer cells”. For the same molecule, the IC50 in series [3] was 1150 nM.

For `O=C(NO)c1ccc(Nc2nc3ccccc3n2C2CCCCC2)cc1` [ID #25, 4-(1-cyclohexyl-1H-benzo[d]imidazol-2-ylamino)-N-hydroxybenzamide], the IC50 in series [3] came to 3900 nM.

For `O=C(NO)c1ccc(Nc2nc3ccccc3n2C2CCCCCC2)cc1` [ID #26, 4-(1-cycloheptyl-1H-benzo[d]imidazol-2-ylamino)-N-hydroxybenzamide], the IC50 in series [3] was 660 nM.

Source of the values: patent US10780080B2, “Benzamide and active compound compositions and methods of use” (TRANSLATIONAL DRUG DEVELOPMENT, LLC, priority 2016, dated 2020).
